Read-outs that look alike come from different tables or passages of the source. Residues, ends and D or L forms follow the SMILES beside them. No end group written: not given here.
How the values were obtained:
Type in all cases: cell-based
[1] = test system: Escherichia coli [KCTC 1682]
Protocol: (§1) The MICs of the peptides were measured by the Clinical and Laboratory Standards Institute (CLSI) broth microdilution method, as outlined in a previous study.^[ [26], [27] ^]
(§2) Minimal Inhibitory Concentrations (MICs): Bacteria were grown to mid-logarithmic phase and diluted in Mueller-Hinton broth (MHB) (Difco). The bacterial suspension (1×10^6 CFU/well) was added to a 96-well microtiter plate along with a two-fold serial dilution of samples. The plate was incubated at 37 °C for 24 hours and the bacterial growth inhibition was assessed by measuring the optical density using an ELISA plate reader. The minimum inhibitory concentration (MIC) was defined as the lowest concentration of samples that prevented visible bacterial growth.

[2] = test system: Pseudomonas aeruginosa [KCTC 1637]
Protocol: as §1, §2

[3] = test system: Staphylococcus aureus [KCTC1621]
Protocol: as §1, §2

[4] = test system: Staphylococcus epidermidis [KCTC 1917]
Protocol: as §1, §2

[5] = CLSI broth microdilution in MHB, 1×10^6 CFU/well, 37 °C, 24 h, optical density

PKKVRKSFKKLRNFSNKNSNIYGLPA [LP17]
>128 µg/mL: Minimum inhibitory concentration (MIC), Escherichia coli [KCTC 1682] ([1]; KCTC 1682, 24 h) | Minimum inhibitory concentration (MIC), Pseudomonas aeruginosa [KCTC 1637] ([2]; KCTC 1637, 24 h) | Minimum inhibitory concentration (MIC), Staphylococcus aureus [KCTC1621] ([3]; KCTC1621, 24 h) | Minimum inhibitory concentration (MIC), Staphylococcus epidermidis [KCTC 1917] ([4]; KCTC 1917, 24 h)

MANPVNSIKRIIKKLKKERKCKPNL [LP18]
>128 µg/mL: Minimum inhibitory concentration (MIC), Escherichia coli [KCTC 1682] ([1]; KCTC 1682, 24 h) | Minimum inhibitory concentration (MIC), Pseudomonas aeruginosa [KCTC 1637] ([2]; KCTC 1637, 24 h) | Minimum inhibitory concentration (MIC), Staphylococcus aureus [KCTC1621] ([3]; KCTC1621, 24 h) | Minimum inhibitory concentration (MIC), Staphylococcus epidermidis [KCTC 1917] ([4]; KCTC 1917, 24 h)

LNTPRPELSISQRLLIKNFILII-NH2 [LP14]
>128 µg/mL: Minimum inhibitory concentration (MIC), Escherichia coli [KCTC 1682] ([1]; KCTC 1682, 24 h) | Minimum inhibitory concentration (MIC), Pseudomonas aeruginosa [KCTC 1637] ([2]; KCTC 1637, 24 h) | Minimum inhibitory concentration (MIC), Staphylococcus aureus [KCTC1621] ([3]; KCTC1621, 24 h) | Minimum inhibitory concentration (MIC), Staphylococcus epidermidis [KCTC 1917] ([4]; KCTC 1917, 24 h)

CC[C@H](C)[C@H](NC(=O)[C@@H]1CCCN1C(=O)[C@H](Cc1ccccc1)NC(=O)[C@H](CCC(N)=O)NC(=O)[C@H](CO)NC(=O)[C@H](CCCNC(=N)N)NC(=O)[C@@H](N)Cc1ccccc1)C(=O)N[C@@H](CS)C(=O)N[C@@H](CCCCN)C(=O)N[C@@H](CC(N)=O)C(=O)N[C@@H](CC(C)C)C(=O)N[C@H](C(=O)N[C@@H](CC(N)=O)C(=O)N[C@@H](Cc1c[nH]cn1)C(=O)N[C@H](C(=O)N[C@@H](CCCCN)C(=O)N[C@@H](Cc1ccccc1)C(=O)N[C@H](C(=O)N[C@@H](CS)C(=O)N[C@@H](CCC(N)=O)C(=O)N[C@@H](CCCCN)C(=O)N[C@@H](CCCCN)C(=O)N1CCC[C@H]1C(=O)N[C@@H](CC(C)C)C(=O)N[C@@H](CO)C(=O)N[C@@H](CCCCN)C(=O)N[C@@H](CC(C)C)C(=O)N[C@@H](CCSC)C(=O)N[C@@H](CCCCN)C(=O)N[C@@H](CS)C(=O)N[C@@H](CCCCN)C(=O)N[C@@H](CCCCN)C(=O)N[C@@H](C)C(=O)N[C@@H](CC(C)C)C(=O)N[C@@H](CC(=O)O)C(=O)N[C@@H](CCCNC(=N)N)C(=O)O)C(C)C)[C@@H](C)O)C(C)C [LP16] (H-FRSQFPICKNLVNHTKFVCQKKPLSKLMKCKKALDR-OH)
>128 µg/mL: Minimum inhibitory concentration (MIC), Escherichia coli [KCTC 1682] ([1]; KCTC 1682, 24 h) | Minimum inhibitory concentration (MIC), Pseudomonas aeruginosa [KCTC 1637] ([2]; KCTC 1637, 24 h) | Minimum inhibitory concentration (MIC), Staphylococcus aureus [KCTC1621] ([3]; KCTC1621, 24 h) | Minimum inhibitory concentration (MIC), Staphylococcus epidermidis [KCTC 1917] ([4]; KCTC 1917, 24 h)

CC[C@H](C)[C@H](NC(=O)[C@H](CO)NC(=O)[C@H](CCCNC(=N)N)NC(=O)[C@H](C)N)C(=O)N[C@@H](CCCCN)C(=O)N[C@@H](CCCCN)C(=O)N[C@H](C(=O)N[C@H](C(=O)N[C@@H](Cc1ccccc1)C(=O)N[C@@H](CO)C(=O)N[C@@H](CO)C(=O)N[C@@H](CO)C(=O)N[C@@H](CO)C(=O)N[C@@H](CCCNC(=N)N)C(=O)N[C@H](C(=O)N[C@@H](CS)C(=O)N1CCC[C@H]1C(=O)N1CCC[C@H]1C(=O)N[C@@H](CC(C)C)C(=O)N[C@@H](CCCCN)C(=O)N[C@@H](CCSC)C(=O)N[C@@H](CC(C)C)C(=O)N[C@@H](CCCCN)C(=O)N[C@@H](CC(C)C)C(=O)N[C@@H](CCCNC(=N)N)C(=O)N1CCC[C@H]1C(=O)N[C@@H](CS)C(=O)N[C@@H](Cc1ccccc1)C(=O)N[C@@H](CCCCN)C(=O)N[C@@H](CCCCN)C(=O)N[C@H](C(=O)N1CCC[C@H]1C(=O)N[C@@H](CCCCN)C(=O)N[C@@H](CC(C)C)C(=O)N[C@@H](CC(=O)O)C(=O)NCC(=O)N[C@@H](CCC(N)=O)C(=O)O)C(C)C)C(C)C)[C@@H](C)CC)C(C)C [LP15] (H-ARSIKKVIFSSSSRVCPPLKMLKLRPCFKKVPKLDGQ-OH; N-terminus and C-terminus assumed)
>128 µg/mL: Minimum inhibitory concentration (MIC), Escherichia coli [KCTC 1682] ([1]; KCTC 1682, 24 h) | Minimum inhibitory concentration (MIC), Pseudomonas aeruginosa [KCTC 1637] ([2]; KCTC 1637, 24 h) | Minimum inhibitory concentration (MIC), Staphylococcus aureus [KCTC1621] ([3]; KCTC1621, 24 h) | Minimum inhibitory concentration (MIC), Staphylococcus epidermidis [KCTC 1917] ([4]; KCTC 1917, 24 h)

KLTPKPAKKVKKVVKF [LP1]
>128 µg/mL: Minimum inhibitory concentration (MIC), Escherichia coli [KCTC 1682] ([1]; KCTC 1682, 24 h) | Minimum inhibitory concentration (MIC), Pseudomonas aeruginosa [KCTC 1637] ([2]; KCTC 1637, 24 h) | Minimum inhibitory concentration (MIC), Staphylococcus aureus [KCTC1621] ([3]; KCTC1621, 24 h) | Minimum inhibitory concentration (MIC), Staphylococcus epidermidis [KCTC 1917] ([4]; KCTC 1917, 24 h)

FGQKVNCILNFICYKYLRI LV [LP2, putative AMP predicted from the Hirudo nipponia transcriptome]
>128 µg/mL: Minimum inhibitory concentration (MIC), Escherichia coli [KCTC 1682] [1, 5] | Minimum inhibitory concentration (MIC), Pseudomonas aeruginosa [KCTC 1637] [2, 5] | Minimum inhibitory concentration (MIC), Staphylococcus aureus [KCTC1621] [3, 5] | Minimum inhibitory concentration (MIC), Staphylococcus epidermidis [KCTC 1917] [4, 5]

NITDYNKKKVRLLPRFIFPLG-NH2 [LP13]
>128 µg/mL: Minimum inhibitory concentration (MIC), Escherichia coli [KCTC 1682] ([1]; KCTC 1682, 24 h) | Minimum inhibitory concentration (MIC), Pseudomonas aeruginosa [KCTC 1637] ([2]; KCTC 1637, 24 h) | Minimum inhibitory concentration (MIC), Staphylococcus aureus [KCTC1621] ([3]; KCTC1621, 24 h) | Minimum inhibitory concentration (MIC), Staphylococcus epidermidis [KCTC 1917] ([4]; KCTC 1917, 24 h)
